# Laboratory results from patent US7473788B2, “Analogs of terpene trilactones from Ginkgo biloba and related compounds and uses thereof” (The Trustees of Columbia University in the City of New York, priority 2002, dated 2009).
# pIC50, pKi: −log10 of the molar value. Read-outs that look alike come from different tables or passages of the source.
# Experiments:
# PAFR [1] = biological target: T1, PAFR (Cavia porcellus, UniProt P21556); settings: for pKi: Inhibition of [^3H]-WEB 2086 binding, cloned PAFR, Cheng-Prusoff from IC50; for PAFR binding (in words): at the concentrations tested
# PAFR [2] = biological target: T1, PAFR; assay: biochemical
# PAFR [3] = biological target: T1, PAFR; assay type: binding, PAFR transgenic mice
# PAFR [4] = settings: literature (Pietri, 2001; Jaracz, 2002); cited from earlier work
# PAFR [5] = settings: PAF-induced rabbit platelet aggregation (Park, 1996; Hu, 1999; Hu, 2000); cited from earlier work
# PAFR [6] = assay: PAFR antagonism in previous or preliminary studies (literature, unpublished results); settings: preliminary studies (Suehiro, unpublished results)
# [7] = Inhibition of [^3H]-WEB 2086 binding, means of two independent experiments performed in triplicate, read-out: Ki
# [8] = Ki, Inhibition of [^3H]-WEB 2086 binding, means of two independent experiments performed in triplicate
# T1 sequence (P21556 whole entry): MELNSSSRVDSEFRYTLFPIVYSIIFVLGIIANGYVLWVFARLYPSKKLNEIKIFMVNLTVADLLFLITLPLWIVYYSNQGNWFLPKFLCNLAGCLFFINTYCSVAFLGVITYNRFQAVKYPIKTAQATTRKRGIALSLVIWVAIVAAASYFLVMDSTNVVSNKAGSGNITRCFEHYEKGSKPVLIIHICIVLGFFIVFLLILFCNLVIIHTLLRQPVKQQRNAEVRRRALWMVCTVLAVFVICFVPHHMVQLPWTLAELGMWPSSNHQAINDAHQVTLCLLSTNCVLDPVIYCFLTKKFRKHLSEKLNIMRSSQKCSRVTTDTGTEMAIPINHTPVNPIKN
molecule,measurement,setting,value
"CC(C)(C)[C@]1(O)CC2OC(=O)CC23C(=O)OC2OC(=O)[C@H](O)C231 (stereo partly shown) [BB (6), bilobalide]",pKi,PAFR [1],< 4.30
same,PAFR binding (in words),PAFR [1],not active in concentrations up to 100 μM
"CC1C(=O)OC2C(O)C34C5OC(=O)C3(OC3OC(=O)C(O)C34C(C(C)(C)C)C5O)C12O (stereo not shown) [GC (3), ginkgolide C, reference compound]",pKi,PAFR [2],4.90
"CCNC1C(C(C)(C)C)C23C(OC(=O)C2O)OC24C(=O)OC1C32C(O)C1OC(=O)C(C)C14O (stereo not drawn) [7α-NHEt-GB (26), 7α-N-Ethylamino Ginkgolide B]",pKi,PAFR [3]; [7],5.79
same,pKi,PAFR [3]; [8],5.79 to 6.26
"COC1C(=O)OC2OC34C(=O)OC5CC(C(C)(C)C)C21C53C(O)C1OC(=O)C(C)C14O (stereo not shown) [Compound 14, 10-O-Methyl ginkgolide B]",pKi,PAFR [2],5.50
7-O-(4-methylphenyl)-GB,PAFR activity (in words),PAFR [4],devoid of PAFR activity
"CC1C(=O)OC2C(O)C34C5OC(=O)C3(OC3OC(=O)C(OCc6ccccc6)C34C(C(C)(C)C)C5O)C12O (stereo not shown) [10-OBn-GC (29), 10-O-Benzyl Ginkgolide C]",pKi,PAFR [3]; [7],5.78
"CC1C(=O)OC2C(O)C34C5CC(C(C)(C)C)C36C(OC(=O)C6O)OC4(C(=O)O5)C12O (stereo not shown) [GB (2), ginkgolide B, reference compound]",pIC50,PAFR [5],~6.70
same,pKi,PAFR [2],6.25
same,fold more potent than GC (2),PAFR [3]; ratio of Ki,ca. 25
same,pKi,PAFR [3]; read-out: Ki,6.06
"CC1C(=O)OC2C(O)C34C5OC(=O)C3(OC3OC(=O)C(O)C34C(C(C)(C)C)C5F)C12O (stereo not shown) [Compound 13, 7-Fluoro ginkgolide B]",fold more potent / improved affinity to PAFR relative to GC (3),PAFR [1],ca. 10
same,fold more potent as a PAFR antagonist compared to GC (2),PAFR [6],15
"CC1C(=O)OC2C(O)C34C5OC(=O)C3(OC3OC(=O)C(OCc6ccccc6)C34C(C(C)(C)C)C5O)C12O (stereo not drawn) [10-OBn-epi-GC (31), 10-O-Benzyl-7-epi-ginkgolide C]",pKi,PAFR [3]; [7],6.22
same,fold improved affinity compared to non-benzylated derivative,PAFR [3]; ratio of Ki,7
"CC(=O)OC1C(C(C)(C)C)C23C(OC(=O)C2O)OC24C(=O)OC1C32C(O)C1OC(=O)C(C)C14O (stereo not drawn) [7α-OAc-GB (17), 7α-O-Acetate Ginkgolide B]",pKi,PAFR [3]; [7],5.11
"CNC1C(C(C)(C)C)C23C(OC(=O)C2O)OC24C(=O)OC1C32C(O)C1OC(=O)C(C)C14O (stereo not drawn) [7α-NHMe-GB (25), 7α-N-Methylamino Ginkgolide B]",pKi,PAFR [3]; [7],6.21
same,pKi,PAFR [3]; [8],5.79 to 6.26
"C[C@@H]1C(=O)O[C@H]2C[C@@]34[C@H]5C[C@@H](C(C)(C)C)[C@]36[C@@H](OC(=O)[C@@H]6O)O[C@@]4(C(=O)O5)[C@]21O [GA (1), ginkgolide A]",pKi,PAFR [1],5.84
10-O-benzoylbenzoic ginkgolide C [Compound 11],pKi,PAFR [1],6.89
"CC1C(=O)OC2C(O)C34C5CC(C(C)(C)C)C36C(OC(=O)C6OCc3ccccc3)OC4(C(=O)O5)C12O (stereo not shown) [10-OBn-GB (28), 10-O-Benzyl Ginkgolide B]",pKi,PAFR [3]; [7],6.92
"CC1C(=O)O[C@H]2C(O)C34C5OC(=O)[C@@]3(OC3OC(=O)[C@H](O)C34C(C(C)(C)C)[C@@H]5N=[N+]=[N-])[C@@]12O (stereo partly drawn) [7α-N3-GB (20), 7α-Azido Ginkgolide B]",pKi,PAFR [3]; [7],6.26
Neoginkgolide C [Compound 23],pKi,PAFR [3]; [7],< 4.40
"CC1C(=O)OC2C(O)C34C5OC(=O)C3(OC3OC(=O)C(OCc6c(F)c(F)c(N=[N+]=[N-])c(F)c6F)C34C(C(C)(C)C)C5O)C12O (stereo not shown) [Compound 9c, 10-O-tetrafluorobenzylazide ginkgolide C]",pKi,PAFR [2],6.10
"CC1C(=O)OC2C(O)C34C5OC(=O)C3(OC3OC(=O)C(O)C34C(C(C)(C)C)C5O)C12O (stereo not drawn) [7-epi-GC (18), 7-Epi-ginkgolide C]",pKi,PAFR [3]; [8],5.37
"CC1C(=O)OC2C(O)C34C5CC(C(C)(C)C)C36C(OC(=O)C6OCc3ccc(C6(C(F)(F)F)N=N6)cc3)OC4(C(=O)O5)C12O (stereo not shown) [Compound 8b, 10-O-(trifluoromethyl-3H-diazirine)benzyl ginkgolide B]",pKi,PAFR [2],6.82
10-O-benzophenone-7-O-dansyl ginkgolide C [Compound 10a],pKi,PAFR [1],5.40
same,times less active than 9a,PAFR [1]; ratio of Ki,ca. 6
ginkgolide J [GJ (4)],pKi,PAFR [1],5.00
"CC1C(=O)OC2C(O)C34C5OC(=O)C3(OC3OC(=O)C(O)C34C(C(C)(C)C)C5OC(=O)Cc3ccccc3)C12O (stereo not drawn) [7α-OCOCH2Ph-GB (19), 7α-O-Phenylacetate Ginkgolide B]",pKi,PAFR [3]; [8],5.62
"CC1C(=O)OC2C(OS(=O)(=O)c3cccc4c(N(C)C)cccc34)C34C5OC(=O)C3(OC3OC(=O)C(OCc6ccc(C(=O)c7ccccc7)cc6)C34C(C(C)(C)C)C5O)C12O (stereo not shown) [Compound 10b, 10-O-benzophenone-1-O-dansyl ginkgolide C]",times more potent than 10a,PAFR [1],ca. four
same,pKi,PAFR [2],6.02
"CC1C(=O)OC2C(O)C34C5OC(=O)C3(OC3OC(=O)C(O)C34C(C(C)(C)C)C5Cl)C12O (stereo not drawn) [7α-Cl-GB (22), 7α-Chloro Ginkgolide B]",fold more potent than GC (2),PAFR [3]; ratio of Ki,115
same,times more potent than GB (1),PAFR [3]; ratio of Ki,8
"CC1C(=O)OC2C(O)C34C5CC(C(C)(C)C)C36C(OC(=O)C6OCc3c(F)c(F)c(N=[N+]=[N-])c(F)c3F)OC4(C(=O)O5)C12O (stereo not shown) [Compound 8c, 10-O-tetrafluorobenzylazide ginkgolide B]",pKi,PAFR [2],7.05
"CC1C(=O)OC2C(O)C34C5OC(=O)C3(OC3OC(=O)C(OCc6ccccc6)C34C(C(C)(C)C)C5F)C12O (stereo not drawn) [10-OBn-7α-F-GB (30), 10-O-Benzyl-7α-fluoro Ginkgolide B]",pKi,PAFR [3]; [8],7.00
same,fold improved affinity compared to non-benzylated derivative,PAFR [3]; ratio of Ki,10
"C[C@@H]1C(=O)O[C@@H]2[C@H]1[C@@]13OC4OC(=O)[C@H](O)C45[C@H](C(C)(C)C)[C@@H](O)C(OC1=O)[C@]53[C@H]2O (stereo partly shown) [GM (5), ginkgolide M]",pKi,PAFR [1],< 4.30
same,PAFR binding (in words),PAFR [1],devoid of PAFR binding
